# Experimental data: patent publication US20230241245A1, “Therapeutic Carbon Nanomaterial H2S Oxidants for Biological Polysulfide Synthesis” (The Texas A&M University System, priority 2020, published 2023)
# Test system: bEnd.3 cells
# Assay: SSP4 fluorescence photomicrographs of bEnd.3 cells with or without AP39 and PEG-OAC
# Assay type: cell-based
# Details: PEG-OACs 4 mg/L
smiles,measurement,value
O=C(CCCCCCCCC[P+](c1ccccc1)(c1ccccc1)c1ccccc1)Oc1ccc(-c2cc(=S)ss2)cc1.[Br-] [AP39],"SSP4 fluorescence, agent alone relative to control",increases the fluorescence signal
